ChEMBL document CHEMBL1649386, “Synthesis and in vitro cytotoxic evaluation of some thiazolylbenzimidazole derivatives” (Eur J Med Chem, 2011)

Columns and labels:
[1] = system: A549 (Homo sapiens); assay: Cytotoxicity against human A549 cells after 72 hrs by MTT assay; details: A549, 72 h
[2] = system: SMMC-7721; assay: Cytotoxicity against human SMMC7721 cells after 72 hrs by MTT assay; details: SMMC-7721, 72 h

SMILES	IC50 [1]	IC50 [2]
Cc1nc(-c2nc3ccccc3n2Cc2ccccc2)sc1C(=O)N1CCCCC1	> 20 µM	> 20 µM
CCOC(=O)c1sc(-c2nc3ccccc3n2CC)nc1C	> 20 µM	9.85 µM
CCOC(=O)c1sc(-c2nc3ccccc3n2C)nc1C	> 20 µM	13.9 µM
Cc1nc(-c2nc3ccccc3n2Cc2ccccc2)sc1C(=O)N1CCOCC1	> 20 µM	> 20 µM
CCOC(=O)c1csc(-c2nc3ccccc3n2Cc2ccccc2)n1	> 20 µM	13 µM
CCOC(=O)c1sc(-c2nc3ccccc3n2Cc2ccccc2)nc1C	> 20 µM	2.78 µM
CCOC(=O)c1csc(-c2nc3ccccc3n2C)n1	> 20 µM	16.5 µM
CCOC(=O)c1csc(-c2nc3ccccc3n2CC)n1	> 20 µM	> 20 µM
CCN(CC)CCNC(=O)c1sc(-c2nc3ccccc3n2Cc2ccccc2)nc1C	2.43 µM	1.14 µM
CCOC(=O)c1sc(-c2nc3ccccc3n2C(C)C)nc1C	> 20 µM	> 20 µM
Cc1nc(-c2nc3ccccc3n2Cc2ccccc2)sc1C(=O)NC1CCCCC1	5.23 µM	12.4 µM
Cc1nc(-c2nc3ccccc3n2Cc2ccccc2)sc1C(=O)NC(C)C	6.64 µM	6.9 µM
CC(=O)O[C@H]1C(=O)[C@@]2(C)[C@H]([C@H](OC(=O)c3ccccc3)[C@]3(O)C[C@H](OC(=O)[C@H](O)[C@@H](NC(=O)c4ccccc4)c4ccccc4)C(C)=C1C3(C)C)[C@]1(OC(C)=O)CO[C@@H]1C[C@@H]2O [PACLITAXEL]		1.42 µM
Cc1nc(-c2nc3ccccc3n2Cc2ccccc2)sc1C(=O)O	> 20 µM	15.3 µM
CCOC(=O)Cc1csc(-c2nc3ccccc3n2C)n1	> 20 µM	> 20 µM
Cc1nc(-c2nc3ccccc3n2Cc2ccccc2)sc1C(=O)N1CCN(C)CC1	> 20 µM	20 µM
Cc1nc(-c2nc3ccccc3n2Cc2ccccc2)sc1C(=O)Nc1ccccc1	3.96 µM	3.7 µM
